What was measured:
PWS-IC = assay: Bisulfite genomic sequencing of PWS-IC, human PWS cells; type: cell-based
Description: Genomic DNA was isolated from human PWS fibroblasts or mouse tissues. DNA (1 μg) was then treated by bisulfite using the Epi-Tect bisulfite kit (Qiagen), and 125 ng input DNA was used per PCR amplification. PCR products were sub-cloned into pGEM-T easy vector (Promega) and an average of 15 clones were sequenced. DNA sequencing results were analyzed using BISMA web-based analysis platform with a setting for individual clones with <95% bisulfite conversion and <90% sequence identity to be excluded in the analysis.

human PWS fibroblasts [1] = assay: Western blot of SNRPN protein in human PWS fibroblasts; type: cell-based; details: 4 μM, 72 hr
human PWS fibroblasts [2] = assay: Chromatin immunoprecipitation (ChIP-qPCR) of H3K9me2/H3K9me3; type: cell-based
Description: Histone methylations on the SNRPN locus in human fibroblasts were analyzed by chromatin immunoprecipitation assay (ChIP) using the protocol as previously reported (see Fulmer-Smentek et al., Human molecular genetics 10, 645-652 (2001)). ChIP assay was performed using ChIP-IT Express magnetic kit (Active Motif) according to the manufacturer's instructions with modification for the fixation and reverse-crosslinking steps. Briefly, native chromatin was prepared without fixation and enzymatic digestions to average 150-500 bp sized chromatin. 20 μg of chromatin was added to the specific antibodies (2 μg) or species control isotype antibodies for each immunoprecipitation reaction. The antibody-chromatin complexes were bound to protein G magnetic beads for recovering chromatin immunoprecipitates. RNase- and proteinase K-treated DNA was purified using PCR purification columns (Promega). DNA recovery was quantified by real time PCR performed on the LightCycler480 instrument (Roche) using SsoAdvanced Universal SYBR green Supermix (Biorad). Antibodies were anti-rabbit acetylated H3 (Millipore 06-599), anti-mouse monoclonal Histone H3 dimethyl K9 (Abcam 1220) and Histone H3 trimethyl K9 (Millipore, 07-442) antibodies. qPCR reactions were performed with the following cycling parameters: at 95° C./5 min followed by 40 cycles of 95° C./30 sec, 60° C./60 sec. Data was normalized to the total input.

several cell lines = details: cited from earlier work
[3] = system: adult Snrpn-EGFP mouse model; assay: Long-lasting unsilencing in adult Snrpn-EGFP mice; type: in vivo; details: 1, 4, and 12 weeks after the last dose; brain
Description: For testing long lasting drug effects, the 6 week-old m^S-EGFP/p^+ mice were treated daily by i.p. injection for seven consecutive days.
For reverse-transcription PCR (RT-PCR) and quantitative real time RT-PCR (qRT-PCR), first total RNA was extracted from the fibroblasts and/or collected tissues (liver and brain) using Direct-zol RNA Miniprep kit (Zymo Research cat. no. R2070). 2 μg of total RNA was directly used for single strand cDNA synthesis with Superscript III reverse transcriptase (Invitrogen cat. no. 18080-093) according to the manufacturer's protocols. The conditions for RT-PCR were 95° C./5 min, 35-40 cycles of 95° C./30 sec, 56-60° C./60 sec, 72° C./60 sec. Quantification of target gene expression was performed in a LightCycler480 instrument (Roche) using SsoAdvanced Universal SYBR green Supermix (Biorad cat. no. 172-5271) according to the manufacturer's instructions. See Table 4 for primer sequences and conditions used for experiments for RT-PCR, qRT-PCR, bisulfite genomic sequencing, ChIP-qPCR, and chromatin accessibility assay.

[4] = in vivo; cited from earlier work
m+/pΔS-U mice = assay: Survival and growth in PWS mouse model; type: in vivo; details: between P10 and P19, treated m+/pΔS-U pups
Description: The dosage and duration vary depending on the age and condition of animals.
The m/p^ΔS-U pups were treated between postnatal day 7 (P7) and P12, as most m^+/p^ΔS-U pups died before weaning. For neonatal PWS mice, a lower dose regimen of 2.5 mg/kg i.p. injections for 5 consecutive days was used. […] Pups at postnatal day 7 (P7) were treated with a daily dose of 2.5 mg/kg for 5 days.

For COc1cc2c(NC3CCN(C(C)C)CC3)nc(C3CCCCC3)nc2cc1OCCCN1CCCC1 [UNC0638], the “DNA methylation of the PWS-IC” value (PWS-IC) was “did not significantly alter”, the “SNRPN protein, of normal levels” value (human PWS fibroblasts [1]) was “approximately 30%” and the “H3K9me2 in the region associated with NDN” value (human PWS fibroblasts [2]) was “reduced”. The “H3K9me2 enriched at the PWS-IC after treatment” value (human PWS fibroblasts [2]; ChIP-qPCR, reduction from 17-fold untreated, p<0.05) was 3 fold, the “H3K9me3 at host transcript of SNORD116 after treatment” value (human PWS fibroblasts [2]; ChIP-qPCR, reduction from 24-fold untreated, p<0.05) was 2 fold and the “H3K9me2 at host transcript of SNORD116 after treatment” value (human PWS fibroblasts [2]; ChIP-qPCR, reduction from 122-fold untreated, p<0.05) was 4 fold. For the same molecule, the “level of H3K9me2 (and H3K9me3) in the PWS-IC” value (human PWS fibroblasts [2]; in words) was “drastically reduced”.
For COc1cc2c(NC3CCN(C(C)C)CC3)nc(N3CCC(F)(F)CC3)nc2cc1OCCCN1CCCC1 [UNC0642], the cell toxicity (several cell lines) is listed as “low cell toxicity”, the “maternal expression of Snrpn-EGFP” value [3] is listed as “long lasting effect” and the “pharmacokinetic properties such as central nervous system penetration” value [4] is listed as “superior to UNC0638”. For the same molecule, the “growth (body weight)” value (m+/pΔS-U mice) was “significant improvement of growth”.

Source: patent publication US11278550B2, “Compositions and methods for the treatment of Prader-Willi syndrome” (Duke University, priority 2016, dated 2022)
